From patent US20030176314A1, “Compounds for the treatment of pain” (priority 2001, published 2003)
Read-outs that look alike come from different tables or passages of the source.

Key:
[1] = target: T1, rat NPFF2 receptor (Rattus norvegicus, UniProt Q9EQD2); test: Functional assay (agonist potency, intrinsic activity) at cloned rat NPFF2 receptor; format: cell-based; conditions: for rNPFF2 IA: Table 7, intrinsic activity; for Functional Activity rNPFF2 I.A. %: percent of maximum response elicited by neuropeptide FF; for EC50: read-out: Functional Activity rNPFF2 EC50
T1 construct: The full-length NPFF2 was amplified from rat spinal cord cDNA; expressed in transfected cells; host or cells: not given

[2] = target: T2, rat NPFF1 receptor (Rattus norvegicus, UniProt Q9EP86); test: Functional assay (agonist potency, intrinsic activity) at cloned rat NPFF1 receptor; format: cell-based; conditions: for rNPFF1 IA: Table 7, intrinsic activity; for Functional Activity rNPFF1 I.A. %: percent of maximum response elicited by neuropeptide FF
T2 construct: expressed in transfected cells; host or cells: not given

[3] = Table 7, agonist potency, read-out: rNPFF1 EC50
[4] = agonist: IA>15%, antagonist: Ki≦1.2 mM and IA≦15% at the rat cloned NPFF receptors

T1 sequence (Q9EQD2 whole entry): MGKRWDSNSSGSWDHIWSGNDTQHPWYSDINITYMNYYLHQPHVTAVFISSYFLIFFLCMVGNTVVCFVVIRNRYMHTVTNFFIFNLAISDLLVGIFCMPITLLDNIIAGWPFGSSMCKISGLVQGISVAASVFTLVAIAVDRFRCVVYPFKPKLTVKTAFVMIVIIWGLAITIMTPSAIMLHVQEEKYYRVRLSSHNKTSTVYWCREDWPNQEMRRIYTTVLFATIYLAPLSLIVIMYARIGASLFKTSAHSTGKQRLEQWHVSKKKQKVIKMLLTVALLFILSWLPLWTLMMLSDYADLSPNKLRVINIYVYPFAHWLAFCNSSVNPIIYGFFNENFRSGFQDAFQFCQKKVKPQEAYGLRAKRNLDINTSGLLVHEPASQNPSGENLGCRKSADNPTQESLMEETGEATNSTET
T2 sequence (Q9EP86 whole entry): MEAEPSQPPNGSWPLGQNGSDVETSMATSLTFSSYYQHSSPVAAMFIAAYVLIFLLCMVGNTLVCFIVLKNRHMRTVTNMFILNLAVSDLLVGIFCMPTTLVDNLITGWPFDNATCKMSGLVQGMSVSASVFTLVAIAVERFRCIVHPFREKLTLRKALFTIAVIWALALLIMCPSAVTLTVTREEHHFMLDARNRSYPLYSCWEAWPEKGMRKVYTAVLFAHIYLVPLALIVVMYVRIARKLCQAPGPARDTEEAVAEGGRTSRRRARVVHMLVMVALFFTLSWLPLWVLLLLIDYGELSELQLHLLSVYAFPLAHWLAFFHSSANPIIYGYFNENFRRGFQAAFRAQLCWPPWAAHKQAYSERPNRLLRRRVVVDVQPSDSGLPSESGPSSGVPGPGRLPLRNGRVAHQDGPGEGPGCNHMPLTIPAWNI

Row | SMILES | rNPFF2 IA [1] | other results
1 | Cc1ccc2nc(NC(=N)N)nc(C)c2c1 [Compound 1002A, N-(4,6-dimethyl-2-quinazolinyl)guanidine] | 24% NPFF | 
2 | Cc1nc(NC(=N)N)nc2ccc(C(C)(C)C)cc12 [Compound 1004A, N-(6-tert-butyl-4-methyl-2-quinazolinyl)guanidine] | 90% NPFF | rNPFF1 IA [2]: 36% NPFF
3 | N=C(N)NCCC[C@H](NS(=O)(=O)c1c(F)cccc1F)C(=O)N[C@@H](Cc1ccccc1)C(N)=O [Compound 1004B] |  | Functional Activity rNPFF1 I.A. % ([2]; Table 4): 79%; Functional Activity rNPFF2 I.A. % ([1]; Table 4): 43%; EC50 ([1]; Table 4): > 3160 nM
4 | N=C(N)NCCC[C@H](NS(=O)(=O)c1ccc(F)cc1)C(=O)N[C@@H](Cc1ccccc1)C(N)=O [Compound 1005B] |  | Functional Activity rNPFF2 I.A. % ([1]; Table 4): 46%
5 | Cc1nc(NC(=N)N)nc2cc(OCc3ccccc3)ccc12 [Compound 1006A, N-[7-(benzyloxy)-4-methyl-2-quinazolinyl]guanidine] | 22% NPFF | rNPFF1 IA [2]: 15% NPFF
6 | Cc1ccc(S(=O)(=O)N[C@@H](CCCNC(=N)N)C(=O)N[C@@H](Cc2ccccc2)C(N)=O)cc1 [Compound 1007B] |  | Functional Activity rNPFF2 I.A. % ([1]; Table 4): 55%
7 | CCCc1ccc2nc(NC(=N)N)nc(C)c2c1 [Compound 1008A, N-(4-methyl-6-propyl-2-quinazolinyl)guanidine] | 85% NPFF | 
8 | CCCCCCCCc1ccc2nc(NC(=N)N)nc(C)c2c1 [Compound 1009A, N-(4-methyl-6-octyl-2-quinazolinyl)guanidine] | 22% NPFF | EC50 [2, 3]: 1490 nM
9 | Cc1nc(NC(=N)N)nc2ccc(-c3ccccc3)cc12 [Compound 1010A, N-(4-methyl-6-phenyl-2-quinazolinyl)guanidine] | 22% NPFF | 
10 | N=C(N)NCCC[C@H](NS(=O)(=O)c1ccc(Cl)cc1Cl)C(=O)N[C@@H](Cc1ccccc1)C(N)=O [Compound 1010B] |  | Functional Activity rNPFF2 I.A. % ([1]; Table 4): 28%
11 | CCCCOc1ccc2nc(NC(=N)N)nc(C)c2c1 [Compound 1012A, N-(6-butoxy-4-methyl-2-quinazolinyl)guanidine] | 80% NPFF | 
12 | Cc1nc(NC(=N)N)nc2cc(Br)ccc12 [Compound 1014A, N-(7-bromo-4-methyl-2-quinazolinyl)guanidine] | 47% NPFF | 
13 | Cc1cc2nc(NC(=N)N)nc(C)c2cc1C [Compound 1015A, N-(4,6,7-trimethyl-2-quinazolinyl)guanidine] | 56% NPFF | 
14 | COc1ccc(S(=O)(=O)N[C@@H](CCCNC(=N)N)C(=O)N[C@@H](Cc2ccccc2)C(N)=O)cc1OC [Compound 1015B] |  | Functional Activity rNPFF1 I.A. % ([2]; Table 4): 84%; Functional Activity rNPFF2 I.A. % ([1]; Table 4): 74%
15 | COc1cc2c(C)nc(NC(=N)N)nc2cc1C [Compound 1016A, N-(6-methoxy-4,7-dimethyl-2-quinazolinyl)guanidine] | 74% NPFF | 
16 | Cc1cc2nc(NC(=N)N)nc(C)c2cc1O [Compound 1017A, N-(6-hydroxy-4,7-dimethyl-2-quinazolinyl)guanidine] | 23% NPFF | 
17 | Cc1nc(NC(=N)N)nc2cc(F)c(F)cc12 [Compound 1019A, N-(6,7-difluoro-4-methyl-2-quinazolinyl)guanidine] | 31% NPFF | 
18 | N=C(N)NCCC[C@H](NS(=O)(=O)c1c(Cl)cccc1Cl)C(=O)N[C@@H](Cc1ccccc1)C(N)=O [Compound 1019B] |  | classification as agonist or antagonist at the NPFF1 receptor [2, 4]: agonists; classification as agonist or antagonist at the NPFF2 receptor [1, 4]: agonists
19 | Cc1nc(NC(=N)N)nc2cc(C(C)C)ccc12 [Compound 1021A, N-(7-isopropyl-4-methyl-2-quinazolinyl)guanidine] | 76% NPFF | 
20 | N=C(N)NCCC[C@H](NS(=O)(=O)c1ccc(Cl)c(Cl)c1)C(=O)N[C@@H](Cc1ccccc1)C(N)=O [Compound 1022B] |  | Functional Activity rNPFF1 I.A. % ([2]; Table 4): 86%; EC50 ([2]; Table 4, read-out: Functional Activity rNPFF1 EC50): 1860 nM; Functional Activity rNPFF2 I.A. % ([1]; Table 4): 34%; EC50 ([1]; Table 4): > 3160 nM
21 | Cc1nc(NC(=N)N)nc2cc(OC(C)C)ccc12 [Compound 1025A, N-[4-methyl-7-(isopropoxy)-2-quinazolinyl]guanidine] | 27% NPFF | 
22 | Cc1nc(NC(=N)N)nc2ccc(Br)cc12 [Compound 1026A, N-(6-bromo-4-methyl-2-quinazolinyl)guanidine] | 19% NPFF | 
23 | N=C(N)NCCC[C@H](NS(=O)(=O)c1ccccc1[N+](=O)[O-])C(=O)N[C@@H](Cc1ccccc1)C(N)=O [Compound 1026B] |  | Functional Activity rNPFF1 I.A. % ([2]; Table 4): 79%; Functional Activity rNPFF2 I.A. % ([1]; Table 4): 59%
24 | N#Cc1ccccc1S(=O)(=O)N[C@@H](CCCNC(=N)N)C(=O)N[C@@H](Cc1ccccc1)C(N)=O [Compound 1027B] |  | Functional Activity rNPFF1 I.A. % ([2]; Table 4): 52%; Functional Activity rNPFF2 I.A. % ([1]; Table 4): 48%
25 | Cc1nc(NC(=N)N)nc2ccc(OCc3ccccc3)cc12 [Compound 1028A, N-[6-(benzyloxy)-4-methyl-2-quinazolinyl]guanidine] | 79% NPFF | 

Row | SMILES | rNPFF2 IA [1] | other results
26 | N=C(N)NCCC[C@@H](NS(=O)(=O)c1ccc(F)cc1)C(=O)N[C@@H](Cc1ccccc1)C(N)=O [Compound 1028B] |  | Functional Activity rNPFF1 I.A. % ([2]; Table 5): 46%; Functional Activity rNPFF2 I.A. % ([1]; Table 5): 62%
27 | Cc1nc(NC(=N)N)nc2ccc(C3CCCCC3)cc12 [Compound 1029A, N-(6-cyclohexyl-4-methyl-2-quinazolinyl)guanidine] | 31% NPFF | rNPFF1 IA [2]: 28% NPFF
28 | Cc1nc(NC(=N)N)nc2ccc(OC(F)(F)F)cc12 [Compound 1030A, N-[4-methyl-6-(trifluoromethoxy)-2-quinazolinyl]guanidine] | 85% NPFF | 
29 | CCCCCOc1ccc2nc(NC(=N)N)nc(C)c2c1 [Compound 1031A, N-[4-methyl-6-(pentyloxy)-2-quinazolinyl]guanidine] | 66% NPFF | 
30 | Cc1nc(NC(=N)N)nc2ccc(Oc3ccccc3)cc12 [Compound 1032A, N-(4-methyl-6-phenoxy-2-quinazolinyl)guanidine] | 93% NPFF | rNPFF1 IA [2]: 31% NPFF
31 | Cc1ccc(Oc2ccc3nc(NC(=N)N)nc(C)c3c2)cc1 [Compound 1033A, N-[4-methyl-6-(4-methylphenoxy)-2-quinazolinyl]guanidine] | 51% NPFF | 
32 | Cc1nc(NC(=N)N)nc2ccc(CCCC(C)O)cc12 (stereo not shown) [Compound 1034A, N-(6-[1-(4-hydroxyl-pentyl)]-4-methyl-2-quinazolino)guanidine] | 101% NPFF | rNPFF1 IA [2]: 63% NPFF
33 | Cc1nc(NC(=N)N)nc2cc(C(C)O)ccc12 (stereo not shown) [Compound 1035A, N-[7-(1-hydroxyethyl)-4-methyl-2-quinazolinyl]guanidine] | 52% NPFF | 
34 | Cc1nc(NC(=N)N)nc2cc(OC(F)(F)F)ccc12 [Compound 1036A, N-[4-methyl-7-(trifluoromethoxy)-2-quinazolinyl]guanidine] | 78% NPFF | 
35 | Cc1nc(NC(=N)N)nc2cc3c(cc12)C=CCC3 [Compound 1037A, N-(4-methyl-8,9-dihydrobenzo[g]quinazolin-2-yl)guanidine] | 71% NPFF | 
36 | Cc1nc(NC(=N)N)nc2cc3ccoc3cc12 [Compound 1039A, N-(4-methylfuro[2,3-g]quinazolin-2-yl)guanidine] | 78% NPFF | EC50 [2, 3]: > 10000 nM
37 | N=C(N)NCCC[C@H](NS(=O)(=O)c1ccccc1Br)C(=O)N[C@@H](Cc1ccccc1)C(N)=O [Compound 2001B] |  | Functional Activity rNPFF1 I.A. % ([2]; Table 4): 81%; Functional Activity rNPFF2 I.A. % ([1]; Table 4): 9%
38 | N=C(N)NCCC[C@H](NS(=O)(=O)c1ccc([N+](=O)[O-])cc1[N+](=O)[O-])C(=O)N[C@@H](Cc1ccccc1)C(N)=O [Compound 2002B] |  | Functional Activity rNPFF1 I.A. % ([2]; Table 4): 34%; Functional Activity rNPFF2 I.A. % ([1]; Table 4): 5%
39 | Cc1nc(NC(=N)N)nc2ccc(Cc3ccccc3)cc12 [Compound 2003A, N-(6-benzyl-4-methyl-2-quinazolinyl)guanidine] | 89% NPFF | rNPFF1 IA [2]: 56% NPFF
40 | CCCCc1ccc2nc(NC(=N)N)nc(C)c2c1 [Compound 2004A, N-(6-butyl-4-methyl-2-quinazolinyl)guanidine] | 101% NPFF | rNPFF1 IA [2]: 40% NPFF
41 | CCCCCCc1ccc2nc(NC(=N)N)nc(C)c2c1 [Compound 2005A, N-(6-hexyl-4-methyl-2-quinazolinyl)guanidine] | 81% NPFF | rNPFF1 IA [2]: 56% NPFF
42 | CCCCCCCc1ccc2nc(NC(=N)N)nc(C)c2c1 [Compound 2006A, N-(6-heptyl-4-methyl-2-quinazolinyl)guanidine] | 47% NPFF | rNPFF1 IA [2]: 38% NPFF
43 | Cc1ccc2nc(NC(=N)N)cc(C)c2c1 [Compound 4001A, N-(4,6-dimethyl-2-quinolinyl)guanidine] | 68% NPFF | 
44 | Cc1cc(NC(=N)N)nc2ccc(-c3ccccc3)cc12 [Compound 4003A, N-(4-methyl-6-phenyl-2-quinolinyl)guanidine] | 26% NPFF | 
45 | COc1ccc2nc(NC(=N)N)cc(C)c2c1 [Compound 4004A, N-(6-methoxy-4-methyl-2-quinolinyl)guanidine] | 65% NPFF | 
46 | Cc1cc(NC(=N)N)nc2cc(F)ccc12 [Compound 4007A, N-(7-fluoro-4-methyl-2-quinolinyl)guanidine] | 17% NPFF | 
47 | Cc1cc(C)c2c(C)cc(NC(=N)N)nc2c1 [Compound 4008A, N-(4,5,7-trimethyl-2-quinolinyl)guanidine] | 65% NPFF | 
48 | Cc1cc(NC(=N)N)nc2ccc3ccccc3c12 [Compound 4009A, N-(1-methylbenzo[f]quinolin-3-yl)guanidine] | 70% NPFF | 
49 | CCCCc1ccc2nc(NC(=N)N)cc(C)c2c1 [Compound 5001A, N-(6-butyl-4-methyl-2-quinolinyl)guanidine] | 82% NPFF | rNPFF1 IA [2]: 28% NPFF
